“Also recorded” adds a separate entry of the source.
How the values were obtained:
TAOK2 = target: T1, TAOK2 (Rattus norvegicus, UniProt Q9JLS3); assay: Differential scanning fluorimetry (DSF) binding assay against TAOK2; conditions: DSF melt temperature shift of TAOK2, 5 μM TAOK2, compound 1 μM
T1 construct: made in house
T1 sequence (Q9JLS3 1-320 limits assumed): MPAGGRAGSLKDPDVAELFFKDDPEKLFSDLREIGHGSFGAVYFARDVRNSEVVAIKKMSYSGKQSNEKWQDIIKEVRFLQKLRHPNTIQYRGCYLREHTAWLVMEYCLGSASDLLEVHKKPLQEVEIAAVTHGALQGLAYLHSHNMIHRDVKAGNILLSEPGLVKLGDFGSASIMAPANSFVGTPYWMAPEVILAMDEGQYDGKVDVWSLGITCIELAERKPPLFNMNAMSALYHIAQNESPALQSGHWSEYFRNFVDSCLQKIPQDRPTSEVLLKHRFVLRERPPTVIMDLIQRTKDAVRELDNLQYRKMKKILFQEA
Protocol: (§1) Differential scanning fluorimetry binding assays of selected compounds against TAOK2 were conducted to measure strength of compound binding. A solution of 5 μM TAOK2, 50 mM MgCl2, 50 mM HEPES pH 7.5, and 2.5x SyproOrange(Life Technologies) was made. Compound was added to a final concentration of 1 μM. 25 μl of the reaction solution was added to the wells of a Biorad Multiplate 96 wellclear PCR plate. The plate was covered with a Biorad Microseal ‘B’ seal. Plates were read in a Biorad CFX96 Real-Time PCR system. The temperature was increased from 4° C. to 80° C., with fluorescence measurements being taken every 0.5° C. in the 6-FAM Fluorescein channel. The fluorescence response to heat curve was fit to a binding isotherm in order to determine the inflection point, which was taken as the melt temperature (Tm).
The prevalence of multiple heterocycles in the compounds is reflective of the composition of the screen (described in Methods in Supplemental Material). These 13 compounds were purchased from Chembridge Inc. and ChemDiv Inc. for measurement of direct binding using Differential Scanning Fluorimetry (DSF). DSF measures protein melt temperature (Tm) with a lipophilic dye (SyproOrange). As the temperature of the solution is increased, measurements of dye fluorescence are taken. When the protein begins to denature, hydrophobic regions in the protein are exposed, and the dye is able to bind. This binding insulates the dye from the surrounding water, reducing quenching effects and allowing fluorescence. Binding of small molecules to protein has a stabilizing effect, and this is seen by an increase in melt temperature (Table 1). The ΔTm values ranged from 3.0 to −0.6° C. The three compounds with the highest positive shifts were SW034538, SW163112, and SW083688, with 3° C., 2.2° C., and 2° C. shifts, respectively.

p38 and ASK1 = assay: DSF selectivity for TAOK2 over small panel of other MAPK cascade members; type: binding; conditions: versus p38 and ASK1
Protocol: as §1
(§2) The difference between the TAOK2 ΔTm and that of p38 and ASK1 was determined. […] The majority of the other compounds were also preferentially inhibitory toward TAOK2. Of the 13 compounds, SW034538, SW172006 and SW083688 were cross-verified for selectivity by performing a specificity screen against 45 kinases commercially at Eurofins Cerep, Inc. (FIG. 3).

U2OS GFP-LC3 cells [1] = assay: p62 accumulation by western blot (autophagic flux); type: cell-based, human; conditions: 50 μM, 24 hours
Protocol: (§3) FIG. 4A) U2OS cells stably expressing the GFP-LC3 fusion transgene were treated with the indicated compound at 50 μM concentration for 24 hours before GFP fluorescence was measured by flow cytometry. The median fluorescent value from 20,000 cells per condition was normalized to that of vehicle alone (DMSO) within a given experiment. The mean+SD of >2 independent experiments is shown. ****, p<0.0001; ***, p<0.001; **, p<0.01; ns, p>0.05 versus vehicle alone (DMSO) by unpaired t test. FIG. 4B) TAOK2 inhibitors induce accumulation of p62. U2OS GFP-LC3 cells were treated with the indicated compounds at 50 μM concentration, or DMSO alone, for 24 hours. Lysates were collected and analyzed by western blot using the indicated antibodies. XPB was used as a loading control.
U2OS GFP-LC3 cells were seeded in 6-well plates at 150,000 cells per well in Dulbecco's Modified Eagle Medium supplemented with 10% fetal bovine serum. Twenty-four hours after seeding, the indicated compounds were added to a final concentration of 50 µM, or an equivalent volume of vehicle alone (DMSO) was added. Twenty-four hours after compound addition, cells were rinsed twice with PBS and then lysed in 2× sample buffer. Lysates were boiled for 5 minutes, sonicated to shear DNA, separated by SDS-PAGE, and transferred to PVDF membranes (Biorad). The membranes were blocked in 5% milk in TBS-T (Tris-Buffered-Saline, Tween 20) for one hour at room temperature and then incubated with primary antibody in blocking solution overnight at 4° C. Membranes were then washed, incubated with secondary antibody in blocking solution, washed again, and analyzed by enhanced chemiluminescence followed by exposure to film.
(§4) Degradation of the autophagy scaffold and LC3 binding protein p62 is a second marker of autophagic flux. p62 degradation was assayed by Western blotting (FIG. 4B).

U2OS GFP-LC3 cells [2] = assay: GFP-LC3 accumulation by flow cytometry (autophagic flux); type: cell-based, human; conditions: 50 μM, 24 hours
Protocol: as §3
U2OS GFP-LC3 cells were seeded in 6-well plates at 150,000 cells per well in Dulbecco's Modified Eagle Medium supplemented with 10% fetal bovine serum. Twenty-four hours after seeding, the indicated compounds were added to a final concentration of 50 μM, or an equivalent volume of vehicle alone (DMSO) was added. Twenty-four hours after compound addition, cells were rinsed with PBS (Phosphate-Buffered Saline) and analyzed by flow cytometry using a FACS Calibur (BD Biosciences) to measure media GFP fluorescence per cell.
It had previously been determined that TAOK2 is required for autophagic flux in cancer cells. siRNA targeting TAOK2 elicited an expression response similar to siRNA targeting known autophagy genes, such as ULK1, a protein kinase involved in mTOR and AMPK signaling, in the human colon cancer cell line HCT116. TAOK2 depletion also impaired autophagic flux in human osteosarcoma cell line U2OS engineered to stably express the autophagy marker 1A/1B-light chain 3 fused to GFP (GFP-LC3), a microtubule associated protein.
as §4

p38 = p38 (Homo sapiens, UniProt Q16539); assay: DSF against p38 (selectivity panel of MAPK cascade members); type: binding; conditions: difference between the TAOK2 ΔTm and that of p38, DSF
Protocol: as §1, §2

p38, sequence (Q16539 whole entry): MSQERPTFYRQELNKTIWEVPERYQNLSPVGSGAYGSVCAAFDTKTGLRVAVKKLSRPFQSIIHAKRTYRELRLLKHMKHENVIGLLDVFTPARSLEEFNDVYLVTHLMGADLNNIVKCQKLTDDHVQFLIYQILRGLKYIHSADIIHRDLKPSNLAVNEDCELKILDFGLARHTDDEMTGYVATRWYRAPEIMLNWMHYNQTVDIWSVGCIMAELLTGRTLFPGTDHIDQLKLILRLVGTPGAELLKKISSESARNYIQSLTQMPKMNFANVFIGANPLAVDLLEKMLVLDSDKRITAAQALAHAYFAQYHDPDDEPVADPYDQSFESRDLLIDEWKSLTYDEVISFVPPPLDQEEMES

Row | ΔTm at 1 µM (TAOK2) | ΔΔTm (p38) (p38) | SMILES | selectivity for TAOK2 according to DSF (p38 and ASK1) | abundance of p62 (U2OS GFP-LC3 cells [1]) | impairment of autophagic flux (accumulation of GFP-LC3) (U2OS GFP-LC3 cells [2])
1 | 1.3 °C | 2.0 °C | CS(=O)(=O)c1ccc2nc(NC(=O)CCCOc3ccc(Cl)cc3)sc2c1 [SW172006] | selective | increased the abundance of p62 | effective
2 | 2 °C | 2.0 °C | CCOCCCn1c(=S)[nH]c2cc(C(=O)NCC3COc4ccccc4O3)ccc2c1=O (stereo not drawn) [SW083688] | selective | increased the abundance of p62 | effective
3 | 3 °C | 2.8 °C | CCC(=O)Nc1nc(C)c(-c2csc(Nc3cc(OC)ccc3OC)n2)s1 [SW034538] | selective | did not appear to increase the appearance of p62 | showing inhibition; also recorded: effective

Reference: US20170340636A1, “COMPOSITIONS AND METHODS FOR INHIBITION OF AUTOPHAGY” (Board of Regents, The University of Texas System, priority 2016, published 2017)
